Reference: ChEMBL document CHEMBL4382200, “Discovery of Novel 7-Aryl 7-Deazapurine 3'-Deoxy-ribofuranosyl Nucleosides with Potent Activity against Trypanosoma cruzi” (J Med Chem, 2018)
pEC50: −log10 of the molar value. The source made the active and inactive calls. The calls are words filed in the database; no cut-off is given here.

Assays:
[1] = test system: CYP450; assay: Drug metabolism in dog liver microsome S9 fraction assessed as CYP450-mediated metabolism by measuring compound remaining at 5 uM pretreated with NADPH and measured after 60 mins by UPLC-MS/MS analysis; type: ADME, microsomes, Canis lupus familiaris; details: liver microsome S9 fraction, read-out: Stability
[2] = test system: UGT; assay: Drug metabolism in mouse liver microsome S9 fraction assessed as UGT-mediated metabolism by measuring compound remaining at 5 uM pretreated with UDPGA and measured after 60 mins by UPLC-MS/MS analysis; type: ADME, microsomes; details: liver microsome S9 fraction, read-out: Stability
[3] = test system: Trypanosoma cruzi; assay: Antiparasitic activity against Trypanosoma cruzi Y strain bloodstream trypomastigotes infected in Swiss Webster mouse assessed as protection against parasite-induced mortality by measuring survivial at 25 mg/kg, po bid via gavage administered for 5 consecutive days starting from day 5 post infection measured at day 40 post infection relative to control; type: functional
[4] = test system: UGT; assay: Drug metabolism in rat liver microsome S9 fraction assessed as UGT-mediated metabolism by measuring compound remaining at 5 uM pretreated with UDPGA and measured after 30 mins by UPLC-MS/MS analysis; type: ADME, microsomes; details: liver microsome S9 fraction, read-out: Stability
[5] = test system: CYP450; assay: Drug metabolism in rat liver microsome S9 fraction assessed as CYP450-mediated metabolism by measuring compound remaining at 5 uM pretreated with NADPH and measured after 60 mins by UPLC-MS/MS analysis; type: ADME, microsomes; details: liver microsome S9 fraction, read-out: Stability
[6] = test system: Trypanosoma cruzi; assay: Antiparasitic activity against Trypanosoma cruzi Y strain bloodstream trypomastigotes infected in Swiss Webster mouse at 25 mg/kg, po bid via gavage administered for 5 consecutive days starting from day 5 post infection followed by cyclophosphamide-induced immunosuppression on day 40 post infection for 4 consecutive days; type: functional, organism-based
[7] = test system: UGT; assay: Drug metabolism in rat liver microsome S9 fraction assessed as UGT-mediated metabolism by measuring compound remaining at 5 uM pretreated with UDPGA and measured after 60 mins by UPLC-MS/MS analysis; type: ADME, microsomes; details: liver microsome S9 fraction, read-out: Stability
[8] = Cytotoxicity against Swiss mouse embryonic cardiomyocytes assessed as reduction in cell viability after 24 hrs by prestoblue-staining based colorimetry; details: Cardiac muscle cell
[9] = target: T1, Cytochrome P450 (family) (Homo sapiens, UniProt P04798+P05177+P05181+P08684+P10632+P10635+P11509+P11712+P13584+P20813+P20815+P20853+P24462+P24903+P33260+P33261+P51589+P78329+P98187+Q02928+Q08477+Q16678+Q16696+Q5TCH4+Q6VVX0+Q7Z449+Q8TAV3+Q96SQ9+Q9HB55); assay: Drug metabolism in human liver microsome S9 fraction assessed as CYP450-mediated metabolism by measuring compound remaining at 5 uM pretreated with NADPH and measured after 60 mins by UPLC-MS/MS analysis; type: ADME, microsomes; details: liver microsome S9 fraction, read-out: Stability
[10] = test system: Trypanosoma cruzi; assay: Antiparasitic activity against Trypanosoma cruzi Y strain bloodstream trypomastigotes infected in Swiss Webster mouse assessed as decrease in parasitemia at 25 mg/kg, po bid via gavage administered for 5 consecutive days measured at day 8 post infection by direct microscopic counting relative to control; type: functional; set-up: scale not given: the % may be the effect or the level left
[11] = test system: UGT; assay: Drug metabolism in dog liver microsome S9 fraction assessed as UGT-mediated metabolism by measuring compound remaining at 5 uM pretreated with UDPGA and measured after 15 mins by UPLC-MS/MS analysis; type: ADME, microsomes, Canis lupus familiaris; details: liver microsome S9 fraction, read-out: Stability
[12] = Cytotoxicity against Swiss mouse embryonic cardiomyocytes assessed as reduction in cell contractibillity at 2 uM after 24 hrs by light microscopy; details: cardiac muscle cell
[13] = Toxicity in Swiss Webster mouse infected with Trypanosoma cruzi Y strain bloodstream trypomastigotes assessed as weight loss at 25 mg/kg, po bid via gavage administered for 5 consecutive days measured at day 40 post infection; type: organism-based; details: in vivo
[14] = test system: CYP450; assay: Drug metabolism in mouse liver microsome S9 fraction assessed as CYP450-mediated metabolism by measuring compound remaining at 5 uM pretreated with NADPH and measured after 15 mins by UPLC-MS/MS analysis; type: ADME, microsomes; details: liver microsome S9 fraction, read-out: Stability
[15] = test system: CYP450; assay: Drug metabolism in rat liver microsome S9 fraction assessed as CYP450-mediated metabolism by measuring compound remaining at 5 uM pretreated with NADPH and measured after 30 mins by UPLC-MS/MS analysis; type: ADME, microsomes; details: liver microsome S9 fraction, read-out: Stability
[16] = test system: UGT; assay: Drug metabolism in dog liver microsome S9 fraction assessed as UGT-mediated metabolism by measuring compound remaining at 5 uM pretreated with UDPGA and measured after 30 mins by UPLC-MS/MS analysis; type: ADME, microsomes, Canis lupus familiaris; details: liver microsome S9 fraction, read-out: Stability
[17] = test system: Trypanosoma cruzi; assay: Trypanocidal activity against Trypanosoma cruzi Y strain intracellular amastigotes infected in mouse cardiac cells assessed as parasite death after 168 hrs by Giemsa-staining based assay; type: functional, organism-based
[18] = test system: CYP450; assay: Drug metabolism in mouse liver microsome S9 fraction assessed as CYP450-mediated metabolism by measuring compound remaining at 5 uM pretreated with NADPH and measured after 60 mins by UPLC-MS/MS analysis; type: ADME, microsomes; details: liver microsome S9 fraction, read-out: Stability
[19] = test system: UGT; assay: Drug metabolism in mouse liver microsome S9 fraction assessed as UGT-mediated metabolism by measuring compound remaining at 5 uM pretreated with UDPGA and measured after 30 mins by UPLC-MS/MS analysis; type: ADME, microsomes; details: liver microsome S9 fraction, read-out: Stability
[20] = test system: CYP450; assay: Drug metabolism in dog liver microsome S9 fraction assessed as CYP450-mediated metabolism by measuring compound remaining at 5 uM pretreated with NADPH and measured after 30 mins by UPLC-MS/MS analysis; type: ADME, microsomes, Canis lupus familiaris; details: liver microsome S9 fraction, read-out: Stability
[21] = Cytotoxicity against human MRC5 SV2 cells assessed as reduction in cell viability after 3 days resazurin-based fluorimetric assay; details: MRC-5 SV2, 72 h
[22] = test system: Trypanosoma cruzi; assay: Antiparasitic activity against Trypanosoma cruzi Tulahuen CL2 intracellular amastigotes expressing beta-galactosidase infected in human MRC5 SV2 cells after 7 days by chlorophenol red beta-D-galactopyranoside-based spectrophotometric analysis; type: functional, organism-based; details: Tulahuen CL2, MRC-5 SV2, 168 h, read-out: EC50
[23] = Therapeutic index, ratio EC50 for human MRC5 SV2 cells to EC50 for Trypanosoma cruzi Tulahuen CL2 intracellular amastigotes; type: toxicity, cell-based; details: read-out: Ratio EC50
[24] = (§1) Drug metabolism in mouse liver microsome S9 fraction assessed as UGT-mediated metabolism by measuring compound remaining at 5 uM pretreated with UDPGA and measured after 15 mins by UPLC-MS/MS analysis; type: ADME, microsomes; details: microsomes, 0.25 h, 5 µM
[25] = target: T1, Cytochrome P450 (family); assay: Drug metabolism in human liver microsome S9 fraction assessed as CYP450-mediated metabolism by measuring compound remaining at 5 uM pretreated with NADPH and measured after 30 mins by UPLC-MS/MS analysis; type: ADME, microsomes; details: liver microsome S9 fraction, read-out: Stability
[26] = target: T2, UDP-glucuronosyltransferases (UGTs) (family) (Homo sapiens, UniProt O60656+O75310+O75795+P06133+P0DTE4+P0DTE5+P16662+P19224+P22309+P22310+P35503+P35504+P36537+P54855+Q6UWM9+Q9BY64+Q9HAW7+Q9HAW8+Q9HAW9); assay: Drug metabolism in human liver microsome S9 fraction assessed as UGT-mediated metabolism by measuring compound remaining at 5 uM pretreated with UDPGA and measured after 30 mins by UPLC-MS/MS analysis; type: ADME, microsomes; details: liver microsome S9 fraction, read-out: Stability
[27] = test system: UGT; assay: Drug metabolism in dog liver microsome S9 fraction assessed as UGT-mediated metabolism by measuring compound remaining at 5 uM pretreated with UDPGA and measured after 60 mins by UPLC-MS/MS analysis; type: ADME, microsomes, Canis lupus familiaris; details: liver microsome S9 fraction, read-out: Stability
[28] = test system: CYP450; assay: Drug metabolism in mouse liver microsome S9 fraction assessed as CYP450-mediated metabolism by measuring compound remaining at 5 uM pretreated with NADPH and measured after 30 mins by UPLC-MS/MS analysis; type: ADME, microsomes; details: liver microsome S9 fraction, read-out: Stability
[29] = test system: CYP450; assay: Drug metabolism in dog liver microsome S9 fraction assessed as CYP450-mediated metabolism by measuring compound remaining at 5 uM pretreated with NADPH and measured after 15 mins by UPLC-MS/MS analysis; type: ADME, microsomes, Canis lupus familiaris; details: liver microsome S9 fraction, read-out: Stability
[30] = target: T2, UDP-glucuronosyltransferases (UGTs) (family); assay: Drug metabolism in human liver microsome S9 fraction assessed as UGT-mediated metabolism by measuring compound remaining at 5 uM pretreated with UDPGA and measured after 15 mins by UPLC-MS/MS analysis; type: ADME, microsomes; details: liver microsome S9 fraction, read-out: Stability
[31] = target: T1, Cytochrome P450 (family); assay: Drug metabolism in human liver microsome S9 fraction assessed as CYP450-mediated metabolism by measuring compound remaining at 5 uM pretreated with NADPH and measured after 15 mins by UPLC-MS/MS analysis; type: ADME, microsomes; details: liver microsome S9 fraction, read-out: Stability
[32] = test system: Trypanosoma cruzi; assay: Trypanocidal activity against Trypanosoma cruzi Y strain bloodstream trypomastigotes isolated from infected Swiss mouse […] assessed as parasite death after 24 hrs by neubauer chamber based light microscopy; type: functional, organism-based
[33] = test system: UGT; assay: Drug metabolism in rat liver microsome S9 fraction assessed as UGT-mediated metabolism by measuring compound remaining at 5 uM pretreated with UDPGA and measured after 15 mins by UPLC-MS/MS analysis; type: ADME, microsomes; details: liver microsome S9 fraction, read-out: Stability
[34] = (§2) Drug metabolism in rat liver microsome S9 fraction assessed as CYP450-mediated metabolism by measuring compound remaining at 5 uM pretreated with NADPH and measured after 15 mins by UPLC-MS/MS analysis; type: ADME, microsomes; details: microsomes, 0.25 h, 5 µM
[35] = target: T2, UDP-glucuronosyltransferases (UGTs) (family); assay: Drug metabolism in human liver microsome S9 fraction assessed as UGT-mediated metabolism by measuring compound remaining at 5 uM pretreated with UDPGA and measured after 60 mins by UPLC-MS/MS analysis; type: ADME, microsomes; details: liver microsome S9 fraction, read-out: Stability
[36] = test system: Trypanosoma cruzi; assay: Antiparasitic activity against Trypanosoma cruzi Y strain bloodstream trypomastigotes infected in Swiss Webster mouse assessed as protection against parasite-induced mortality at 25 mg/kg, po bid via gavage administered for 5 consecutive days starting from day 5 post infection measured at day 15 post infection; type: functional, organism-based
[37] = test system: UGT; assay: as §1; type: ADME, microsomes; details: liver microsome S9 fraction, read-out: Stability
[38] = test system: Trypanosoma cruzi; assay: Antiparasitic activity against Trypanosoma cruzi Y strain bloodstream trypomastigotes infected in Swiss Webster mouse assessed as protection against parasite-induced mortality at 25 mg/kg, po bid via gavage administered for 5 consecutive days starting from day 5 post infection measured at day 15 to day 22 post infection; type: functional, organism-based
[39] = test system: CYP450; assay: as §2; type: ADME, microsomes; details: liver microsome S9 fraction, read-out: Stability

SMILES | remaining at 1 h, 5 µM [1] [%] | remaining at 1 h, 5 µM [2] [%] | Activity [3] [%] | remaining at 0.5 h, 5 µM [4] [%] | remaining at 1 h, 5 µM [5] [%] | Activity [6] | remaining at 1 h, 5 µM [7] [%] | pEC50 [8] | remaining at 1 h, 5 µM [9] [%] | Activity [10] [%] | remaining at 0.25 h, 5 µM [11] [%] | Activity [13] | remaining at 0.25 h, 5 µM [14] [%] | remaining at 0.5 h, 5 µM [15] [%] | remaining at 0.5 h, 5 µM [16] [%] | pEC50 [17] | remaining at 1 h, 5 µM [18] [%] | remaining at 0.5 h, 5 µM [19] [%] | remaining at 0.5 h, 5 µM [20] [%] | pEC50 [21] | other results
Nc1ncnc2c1c(-c1ccc(Cl)cc1)cn2[C@@H]1O[C@H](CO)[C@@H](O)[C@H]1O | 98 | 106 | 100 | 93 | 106 | inactive | 93 | 3.56 | 86 | >99.8 | 84 | Non-Toxic | 110 | 104 | 70 | 7.54 | 102 | 110 | 96 | 4.57 | Activity [12]: Toxic; pEC50 [22]: 6.33; selectivity ratio [23]: 57; Stability [24]: 124%; remaining at 0.5 h, 5 µM [25]: 93%; remaining at 0.5 h, 5 µM [26]: 96%; remaining at 1 h, 5 µM [27]: 55%; remaining at 0.5 h, 5 µM [28]: 95%; remaining at 0.25 h, 5 µM [29]: 93%; remaining at 0.25 h, 5 µM [30]: 99%; remaining at 0.25 h, 5 µM [31]: 113%; pEC50 [32]: < 4.70; remaining at 0.25 h, 5 µM [33]: 100%; Stability [34]: 122%; remaining at 1 h, 5 µM [35]: 91%
Nc1ncnc2c1c(-c1ccc(Cl)cc1)cn2[C@@H]1O[C@H](CO)C[C@H]1O | 90 | 89 | 100 | 96 | 91 | inactive | 96 | 3.55 | 93 | 94.6 | 96 | Non-Toxic | 86 | 101 | 96 | 7.54 | 68 | 95 | 96 | 4.72 | Activity [36]: Active; pEC50 [22]: 7.33; selectivity ratio [23]: 410; remaining at 0.25 h, 5 µM [37]: 101%; remaining at 0.5 h, 5 µM [25]: 95%; remaining at 0.5 h, 5 µM [26]: 106%; remaining at 1 h, 5 µM [27]: 95%; remaining at 0.5 h, 5 µM [28]: 75%; remaining at 0.25 h, 5 µM [29]: 98%; remaining at 0.25 h, 5 µM [30]: 100%; remaining at 0.25 h, 5 µM [31]: 102%; Activity [38]: Active; pEC50 [32]: < 4.70; remaining at 0.25 h, 5 µM [33]: 101%; remaining at 0.25 h, 5 µM [39]: 101%; remaining at 1 h, 5 µM [35]: 100%
